Data reported in patent US7371571B2, “Recombinant mycobacteria overexpressing D-alanine ligase gene and uses therefore” (priority 2002, dated 2008).
pKi: −log10 of the molar value. In brackets after ≈: the same amount, converted by molar mass. Several values for one entry are separate records, joined by “and”; a condition that tells them apart may be missing. Identical values can stand only once. Entries after “also recorded” stand apart in the source; their conditions may differ. Like-named read-outs stand apart in the source and are kept apart here.

Assays:
[1] = biological target: T1, Ddl (UniProt Q47758); details: Streptococcus faecalis purified Ddl; cited from earlier work
T1 sequence (Q47758 1-348): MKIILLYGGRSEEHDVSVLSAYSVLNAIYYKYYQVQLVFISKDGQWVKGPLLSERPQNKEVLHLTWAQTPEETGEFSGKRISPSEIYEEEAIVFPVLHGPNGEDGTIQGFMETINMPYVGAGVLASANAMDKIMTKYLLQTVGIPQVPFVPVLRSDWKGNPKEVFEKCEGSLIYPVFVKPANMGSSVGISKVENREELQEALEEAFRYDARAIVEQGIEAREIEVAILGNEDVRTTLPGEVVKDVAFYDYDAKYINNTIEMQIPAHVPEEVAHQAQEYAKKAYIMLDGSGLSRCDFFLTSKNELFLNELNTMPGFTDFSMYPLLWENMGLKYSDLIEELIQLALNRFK

[2] = system: M. smegmatis GPM259; assay: Intracellular alanine pools by reverse-phase HPLC; details: 75 μg ml^−1 DCS, 2 h
Method: (§2) M. smegmatis cells were grown in minimal medium until exponential phase and split into two subcultures, and DCS was added to a final concentration of 75 μg ml^−1 to one of the subcultures. After 2 h of incubation, cells were harvested at 4° C. by centrifugation, washed twice with ice-cold double-distilled water, and concentrated 50-fold. Cells were sonicated in a salt-ice-water bath with a Vibra-Cell model VC600 sonicator (Sonic and Materials, Inc., Danbury, Conn.) for 10 min at 80% power output and 50% duty cycle. The lysate was centrifuged at 4° C. for 30 min at 30,000×g to remove bacterial debris. Protein was removed from the supernatant by serial passages through YM-10 and YM-3 Centricon concentrators (Millipore Corp., Bedford, Mass.). Determination of the abundance of individual amino acids was performed at the Amino Acid Geochronology Laboratory of Northern Arizona University (Flagstaff, Ariz.) by a reverse-phase high-performance liquid chromatography (HPLC) procedure described previously (Kaufman and Manley, 1998). This procedure is able to detect nine pairs of L- and D-amino acids in the subpicomole range. […] Thus, the abundance of each amino acid was calculated as the area under the corresponding peak and expressed relative to this pool.

[3] = system: M. smegmatis GPM260; assay: Intracellular alanine pools by reverse-phase HPLC; details: 75 μg ml^−1 DCS, 2 h
Method: as §2

[4] = system: M. smegmatis GPM14; assay: Intracellular alanine pools by reverse-phase HPLC; details: 75 μg ml^−1 DCS, 2 h
Method: as §2

[5] = system: M. smegmatis GPM2; assay: MIC by microdilution method; type: cell-based, Mycobacterium smegmatis; details: Mycolicibacterium smegmatis
[6] = system: M. smegmatis mc^2155; assay: MIC by microdilution method; type: cell-based, Mycobacterium smegmatis
[7] = biological target: Alr; details: Streptococcus faecalis purified Alr; cited from earlier work
[8] = system: M. smegmatis GPM265 (overproducing M. tuberculosis Ddl); assay: microbe, parasite or virus in culture; type: cell-based, Mycobacterium smegmatis; details: for MIC: Mycolicibacterium smegmatis, 48 h
[9] = biological target: T2, M. tuberculosis Ddl (Mycobacterium tuberculosis, UniProt P9WP31); type: biochemical
T2 sequence (P9WP31 1-373): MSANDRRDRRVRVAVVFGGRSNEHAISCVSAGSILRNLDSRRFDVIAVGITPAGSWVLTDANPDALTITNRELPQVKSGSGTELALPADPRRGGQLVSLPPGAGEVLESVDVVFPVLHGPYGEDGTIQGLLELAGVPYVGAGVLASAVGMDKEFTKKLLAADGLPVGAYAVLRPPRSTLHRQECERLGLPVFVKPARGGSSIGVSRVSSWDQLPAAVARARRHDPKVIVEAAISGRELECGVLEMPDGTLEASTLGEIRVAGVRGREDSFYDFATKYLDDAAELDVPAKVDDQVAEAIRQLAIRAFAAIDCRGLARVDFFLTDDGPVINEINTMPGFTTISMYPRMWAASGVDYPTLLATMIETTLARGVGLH

[10] = system: M. smegmatis GPM14 (overproducing Alr); assay: MIC by microdilution method; type: cell-based, Mycobacterium smegmatis; details: for MIC: Mycolicibacterium smegmatis, 48 h
Method: (§1) MICs were determined by a microdilution method described previously (Takiff et al., 1996) with minor modifications. Briefly, M. smegmatis cells were grown in M-ADC-TW to mid-exponential phase (optical density at 600 nm, 0.6 to 1.0). Approximately 10^5 CFU in 0.1 ml were inoculated in triplicate onto 96-well microplates containing serial twofold dilutions of inhibitory compounds. Plates were incubated at 37° C. and examined daily. The MIC was defined as the minimal concentration of the drug or inhibitor that prevented visible bacterial growth after 48 h. Each MIC represents the consistent result from at least three independent cultures. Amikacin, DCS, βCDA, ethambutol, and vancomycin (all from Sigma) were prepared in sterile deionized water. Rifabutin (Amersham Pharmacia) was prepared in dimethyl sulfoxide (Fisher Scientific, St. Louis, Mo.). All further dilutions of each antibiotic were prepared in growth medium. Inhibition of colony formation by DCS was evaluated as described previously in Caceres et al., (1997), which is incorporated herein by reference. Appropriate dilutions of exponentially growing M. smegmatis cells were plated onto agar containing 0 to 1,200 μg of DCS ml^−1. Colonies were counted after 5 days of incubation at 37° C. Statistical analysis was conducted using the SAS general linear model procedure (SAS Institute, Cary, N.C.).

[11] = system: M. smegmatis GPM260 (overproducing both Alr and Ddl); assay: MIC by microdilution method; type: cell-based, Mycobacterium smegmatis; details: for MIC: Mycolicibacterium smegmatis, M-ADC-TW, 48 h; for MIC / susceptibility of GPM260 compared with parent strain GPM14: strain GPM260
Method: as §1

[12] = system: M. smegmatis GPM259 (overproducing Ddl); assay: MIC by microdilution method; type: cell-based, Mycobacterium smegmatis; details: for MIC: Mycolicibacterium smegmatis, 48 h
Method: as §1

[13] = system: M. smegmatis mc^2155; assay: Intracellular alanine pools by reverse-phase HPLC; details: 75 μg ml^−1 DCS, 2 h
Method: as §2

[14] = system: M. smegmatis strains; assay: Inhibition of colony formation on agar; type: cell-based, Mycobacterium smegmatis; details: agar with 0 to 1,200 μg of DCS ml^−1, 5 days
Method: as §1

[15] = biological target: M. smegmatis Ddl (Mycolicibacterium smegmatis, UniProt Q9ZGN0); type: biochemical, Mycobacterium smegmatis
Sequence of M. smegmatis Ddl (Q9ZGN0 whole entry): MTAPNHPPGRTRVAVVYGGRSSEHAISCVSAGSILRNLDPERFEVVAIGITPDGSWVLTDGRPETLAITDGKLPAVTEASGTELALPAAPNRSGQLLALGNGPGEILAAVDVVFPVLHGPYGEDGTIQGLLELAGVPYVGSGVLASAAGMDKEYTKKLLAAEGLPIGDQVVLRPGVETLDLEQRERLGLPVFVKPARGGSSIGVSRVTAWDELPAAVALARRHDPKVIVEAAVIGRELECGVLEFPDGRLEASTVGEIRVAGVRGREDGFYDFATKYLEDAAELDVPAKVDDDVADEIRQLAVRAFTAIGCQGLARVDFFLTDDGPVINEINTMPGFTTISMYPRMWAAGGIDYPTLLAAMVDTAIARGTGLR

[16] = system: M. smegmatis strains; assay: Drug susceptibility compared across strains; type: cell-based, Mycobacterium smegmatis; details: mc^2155, GPM259, GPM265, GPM14

Q: What does the source list for NC1CONC1=O (stereo not drawn) [DCS, 4-amino-3-isoxazolidinone]?
A: pKi [1]: 3.05; excess of L-alanine [2]: 18- to 20 fold and ~20 fold; excess of L-alanine [3]: 18- to 20 fold and ~20 fold; excess of L- over D-alanine [4]: three-fold; MIC ([5]; strain GPM2, M-ADC-TW, 48 h, read-out: MIC): 75 µg/mL (≈ 735 µM); MIC ([6]; Mycolicibacterium smegmatis, strain mc^2155, M-ADC-TW, 48 h, read-out: MIC): 75 µg/mL (≈ 735 µM); MIC ([6]; strain mc^2155, M-ADC-TW, 48 h): 75.0 µg/mL (≈ 735 µM); pKi [7]: 4.70; MIC relative to that for mc^2155 [8]: twofold greater; MIC [8]: 150 µg/mL (≈ 1470 µM); inhibition of Ddl enzyme [9]: inhibited by DCS in a concentration-dependent manner; percentage of inhibition higher than in mc^2155 and GPM259 extracts [9]: approximately 10%; MIC [10]: 300 µg/mL (≈ 2940 µM); MIC [11]: 600 µg/mL (≈ 5880 µM); level of resistance ([11]; strain overexpressing both the alr and ddl genes): eightfold-higher; MIC [12]: 150 µg/mL (≈ 1470 µM); MIC relative to that for mc^2155 ([12]; strain GPM259): twofold greater; excess of L- over D-alanine [13]: eightfold; increase of L-alanine-to-D-alanine molar ratio ([13]; versus untreated): 3.5 fold; resistance of GPM259 and GPM265 on solid agar [14]: more resistant to DCS than the wild-type mc^2155 but less resistant than the Alr-overproducing strain GPM14; Ddl activity inhibited [15]: 10 to 15%; Ddl enzyme activity inhibited [15]: Approximately 50%; inhibition of Ddl enzyme [15]: inhibited by DCS in a concentration-dependent manner

Q: For NCC[C@H](O)C(=O)N[C@@H]1C[C@H](N)[C@@H](O[C@H]2O[C@H](CN)[C@@H](O)[C@H](O)[C@H]2O)[C@H](O)[C@H]1O[C@H]1O[C@H](CO)[C@@H](O)[C@H](N)[C@H]1O [amikacin], which “susceptibility of GPM260 compared with parent strain GPM14” value [11] is on record?
A: identical

Q: What about the “susceptibilities of strains overproducing Alr and/or Ddl compared with wild type” value (“susceptibilities … compared with wild type” for short) [16] of the same molecule?
A: identical

Q: Which “susceptibility of GPM260 compared with parent strain GPM14” value [11] does the source give for CC[C@@H](CO)NCCN[C@@H](CC)CO [ethambutol] here?
A: identical

Q: What about the “susceptibilities … compared with wild type” value [16] of the same molecule?
A: identical

Q: With CO[C@H]1/C=C/O[C@@]2(C)Oc3c(C)c(O)c4c(c3C2=O)C2=NC3(CCN(CC(C)C)CC3)NC2=C(NC(=O)/C(C)=C\C=C\[C@H](C)[C@H](O)[C@@H](C)[C@@H](O)[C@@H](C)[C@H](OC(C)=O)[C@@H]1C)C4=O [rifabutin] as the molecule, how does the “susceptibility of GPM260 compared with parent strain GPM14” value [11] read?
A: identical

Q: What about the “susceptibilities … compared with wild type” value [16] of the same molecule?
A: identical

Q: With CN[C@H](CC(C)C)C(=O)N[C@H]1C(=O)N[C@@H](CC(N)=O)C(=O)N[C@H]2C(=O)N[C@H]3C(=O)N[C@H](C(=O)N[C@H](C(=O)O)c4cc(O)cc(O)c4-c4cc3ccc4O)[C@H](O)c3ccc(c(Cl)c3)Oc3cc2cc(c3O[C@@H]2O[C@H](CO)[C@@H](O)[C@H](O)[C@H]2O[C@H]2C[C@](C)(N)[C@H](O)[C@H](C)O2)Oc2ccc(cc2Cl)[C@H]1O [vancomycin] as the molecule, how does the “susceptibility of GPM260 compared with parent strain GPM14” value [11] read?
A: identical

Q: What about the “susceptibilities … compared with wild type” value [16] of the same molecule?
A: does not have an effect on the susceptibility; also recorded: identical

Q: What does the source list for N[C@H](CCl)C(=O)O [βCDA, β-chloro-D-alanine]?
A: MIC ([5]; GPM2, 48 h): 25 µg/mL (≈ 202 µM); MIC ([6]; Mycolicibacterium smegmatis, MC^2155, 48 h): 25 µg/mL (≈ 202 µM); MIC [8]: 25 µg/mL (≈ 202 µM); MIC [10]: 100 µg/mL (≈ 809 µM); MIC relative to those for strains with wild-type levels of Alr ([10]; strain GPM14): fourfold higher; MIC [11]: 100 µg/mL (≈ 809 µM); susceptibility of GPM260 compared with parent strain GPM14 [11]: identical; MIC ([12]; strain GPM259, M-ADC-TW, read-out: MIC): 25 µg/mL (≈ 202 µM)
